Earlier results as cited in patent US20220305218A1, “LUMINAL OXYGEN DELIVERY AND DEVICE FOR TREATING DISEASES AND CONDITIONS ASSOCIATED WITH STRICT ANAEROBIC MICROORGANISMS” (priority 2021, published 2022).

For Cc1ncc([N+](=O)[O-])n1CCO [metronidazole], the resistance rate (C. difficile strains) is listed as roughly 1%.

For O=O [oxygen], the “time C. difficile can persist in a vegetative state” value (C. difficile; room air (20% oxygen, 160 mm Hg)) is given as roughly 24 h and the “oxygen partial pressure at which C. difficile is unable to grow” value (C. difficile; strict, obligate anaerobe) is given as no less than 3 mm Hg.

In the case of CN[C@H](CC(C)C)C(=O)N[C@H]1C(=O)N[C@@H](CC(N)=O)C(=O)N[C@H]2C(=O)N[C@H]3C(=O)N[C@H](C(=O)N[C@H](C(=O)O)c4cc(O)cc(O)c4-c4cc3ccc4O)[C@H](O)c3ccc(c(Cl)c3)Oc3cc2cc(c3O[C@@H]2O[C@H](CO)[C@@H](O)[C@H](O)[C@H]2O[C@H]2C[C@](C)(N)[C@H](O)[C@H](C)O2)Oc2ccc(cc2Cl)[C@H]1O [vancomycin], the resistance rate (C. difficile strains) is given as roughly 1%.
